# In US20160367578A1, “METHODS AND COMPOSITIONS FOR ERADICATING LEUKEMIC CELLS” (priority 2013, published 2016):
# Tests used:
# [1] = test system: human AML cell line U937; experiment: Neutrophil differentiation (CD66b+/CD14-) by FACS in U937; type: cell-based; settings: U937, 16 hours
# [2] = test system: human AML cell line HL60; experiment: Neutrophil differentiation (CD66b+/CD14-) by FACS in HL60; type: cell-based; settings: HL60, 16 hours
# [3] = test system: human leukemic cancer stem and progenitor cells (THP1, HL60, U937); experiment: Colony formation assay (CFU-C) on human leukemic cell lines; type: cell-based
# [4] = test system: human APL cell line HL60; experiment: HL60 viability (flow cytometry) and colony formation after CBX; type: cell-based; settings: viability 16 hours, colony formation 7 days post exposure
# [5] = test system: MLL-AF9 leukemic cells; experiment: Apoptosis of MLL-AF9 leukemic cells (7AAD-negative, annexin-V positive); type: cell-based, mouse; set-up: apoptosis of leukemic cells, kinetics: dose or concentration left out as unconfirmed
# Experimental: Rate of proliferation for cell populations used is as follows: MLL-AF9: 3 divisions/24 hours; myeloblasts: 3 divisions/24 hours, eLKS: 7 divisions/24 hours.
# The informational material can include instructions to administer the gap junction blocker and/or agents described herein in a suitable manner, e.g., in a suitable dose, dosage form, or mode of administration. […] The informational material can include instructions for selecting a suitable subject, e.g., a human, e.g., a human suffering from relapsed or refractory acute myeloid leukemia. The informational material of the kits is not limited in its form. In many cases, the informational material, e.g., instructions, is provided in printed matter, e.g., a printed text, drawing, and/or photograph, e.g., a label or printed sheet. However, the informational material can also be provided in other formats, such as Braille, computer readable material, video recording, or audio recording. In another embodiment, the informational material of the kit is a link or contact information, e.g., a physical address, email address, hyperlink, website, or telephone number, where a user of the kit can obtain substantive information about the modulator and/or its use in the methods described herein. Of course, the informational material can also be provided in any combination of formats.
# [6] = test system: MLL-AF9 leukemia; experiment: MLL-AF9 leukemia in non-irradiated mice, intraperitoneal CBX with or w/o chemotherapy (survival, IVIS, flow cytometry); type: in vivo, mouse
# Experimental: Chemo: cytarabine (100 mg/kg) and doxorubicin (3 mg/kg) to the subject for a period of 3 days, followed by administering cytarabine alone (100 mg/kg) to the subject for a period of 2 days.
# Leukemia was induced in mice by intravenously injecting 1 million live MLL-AF9 leukemic cells (expressing GFP and luciferase) into non-irradiated recipients.
# We first studied the immediate response of AML cells to induction chemotherapy in a mouse model of human MLL-AF9 leukemia. MLL-AF9 is a fusion protein, encoded by the t(9; 11)(p22; q23) translocation (Krivtsov, et al. 2006 and Sykes, et al., Cell 146, 697-708 (2011)), present in leukemic blasts derived from patients with AML and is associated with poor prognosis (Schoch, et al., Blood 102, 2395-402 (2003)). In order to generate primary MLL-AF9 leukemic cells for our experiments, we introduced the MLL-AF9 oncogene via retroviral transduction into lineage depleted bone marrow cells from B6.SJL mice, as depicted in FIG. 1A. Sorted GFP positive cells were then intravenously injected into sub-lethally irradiated C57B16 recipients and MLL-AF9 GFP-positive leukemic cells were harvested 3 months later, at a terminal stage of disease. In order to synchronize the timing of the treatment and to visualize disease progression, we transduced primary MLL-AF9 GFP-positive cells with Luciferase lentivirus. Then, we selected Luciferase expressing cells with antibiotics and transplanted 1 million double positive leukemic cells into non-irradiated recipients and monitored disease progression by whole body bioluminescence imaging (FIGS. 1A and 1B).
# 1 week after treatment, mice were imaged and then sacrificed to evaluate treatment outcome.
structure (smiles),measurement,setting,value
"CC1(C)[C@@H](OC(=O)CCC(=O)O)CC[C@]2(C)[C@H]3C(=O)C=C4[C@@H]5C[C@@](C)(C(=O)O)CC[C@]5(C)CC[C@@]4(C)[C@]3(C)CC[C@@H]12 [CBX, Carbenoxolone]",neutrophil differentiation (CD66b+/CD14−),[1],induces rapid (within 16 hours) neutrophil differentiation
same,neutrophil differentiation (CD66b+/CD14−),[2],induces rapid (within 16 hours) neutrophil differentiation
same,effect on human leukemic progenitors (CFU-C),[3]; CBX 100 μM,eradicates human leukemic progenitors
same,effect on human leukemic cancer stem and progenitor cells (CFU-C),[3]; increasing concentrations,eradicates human leukemic cancer stem and progenitor cells
same,sensitivity of HL60,[4],sensitive
same,apoptosis of MLL-AF9 leukemic cells,"[5]; 6, 12 and 20 hours",rapidly induces apoptosis
same,cell cycle dependence of CBX-induced leukemia apoptosis,"[5]; 4 h, 1:1 mixture with highly proliferating normal myeloblasts or expanded LKS cells",not cell cycle dependent
same,apoptosis of leukemic cells in 1:1 mixture with BM-MNC,"[5]; CBX vs PBS control, 4h",induces apoptosis of leukemic cells
same,"apoptosis of leukemic cells, kinetics",[5]; exposure of about […] μM,selective apoptosis within hours
same,"leukemia status 1 week after treatment (luciferase imaging, flow cytometry)",[6]; 25 mg/kg CBX 24 hours before and throughout 5-days induction chemotherapy,entirely leukemia free
same,survival,"[6]; Carbenoxolone 20 mg/kg in combination with chemotherapy, from Day 27",prolonged survival
same,survival,"[6]; Carbenoxolone alone, 20 mg/kg 3 or 6 days from Day 27, or 10/20/30 mg/kg ascending from Day 68",prolonged survival
same,survival,"[6]; IP, 20 mg/kg for 6 days from day 27 (with chemo arm) or 10/20/30 mg/kg ascending from day 68",prolonged survival
same,survival,"[6]; IP, 50 mg/kg 6 days beginning at day 27",prolonged survival
